From ChEMBL document CHEMBL3046025, “Fungitoxic Properties of N-Phenylformamidoximes in Control of Benzimidazole-Resistant Isolates of Fungi” (1992)
Active and inactive are the calls of the source. No cut-off for these calls is given here.

Assays:
[1] = tested on: Botrytis cinerea; experiment: Antifungal activity against Benzimidalzole-resistant Botryotinia fuckeliana isolate Bc-44 infected kidney bean leaves at 50 ppm 24 hr post-infection measured after 3 days; type: functional
[2] = tested on: Cercospora beticola; experiment: Antifungal activity against Benzimidalzole-resistant Cercospora beticola isolate Cb-19 infected in sugar beet seedlings at 3.1 ppm 24 hr-post inoculation; type: functional
[3] = tested on: Cercospora beticola; experiment: Ratio of EC50 for Benzimidalzole-sensitive Cercospora beticola isolate 22-5 to EC50 for Benzimidalzole-resistant Cercospora beticola isole Cb-19; type: functional
[4] = tested on: Cercospora beticola; experiment: Antifungal activity against Benzimidalzole-sensitive Cercospora beticola isolate 22-5 at 0.001 to 1000 ppm after 14 days by agar dilution method; type: functional, organism-based
[5] = tested on: Botrytis cinerea; experiment: Antifungal activity against Benzimidalzole-resistant Botryotinia fuckeliana isolate Bc-44 at 0.001 to 1000 ppm after 3 days by agar dilution method; type: functional, organism-based
[6] = tested on: Cercospora beticola; experiment: Ratio of EC50 for Benzimidalzole-sensitive Cercospora beticola isolate 22-5 to EC50 for Benzimidalzole-resistant Cercospora beticola isolate 49-4; type: functional
[7] = tested on: Botrytis cinerea; experiment: Antifungal activity against Benzimidalzole-resistant Botryotinia fuckeliana isolate Bc-44 infected compound-treated kidney bean leaves at 3.1 ppm after 4 days; type: functional
[8] = tested on: Cercospora beticola; experiment: Ratio of EC50 for Benzimidalzole-resistant Cercospora beticola isolate 18-11 to EC50 for Benzimidalzole-resistant Cercospora beticola isole Cb-19; type: functional
[9] = tested on: Cercospora beticola; experiment: Ratio of EC50 for Benzimidalzole-sensitive Cercospora beticola isolate 18-1 to EC50 for Benzimidalzole-resistant Cercospora beticola isole Cb-19; type: functional
[10] = tested on: Cercospora beticola; experiment: Ratio of EC50 for Benzimidalzole-resistant Cercospora beticola isolate 18-11 to EC50 for Benzimidalzole-resistant Cercospora beticola isole 28-8; type: functional
[11] = tested on: Botrytis cinerea; experiment: Antifungal activity against Benzimidalzole-resistant Botryotinia fuckeliana isolate Bc-44 infected compound-treated kidney bean leaves at 50 ppm after 4 days; type: functional
[12] = tested on: Botrytis cinerea; experiment: Antifungal activity against Benzimidalzole-resistant Botryotinia fuckeliana isolate Bc-31 at 0.001 to 1000 ppm after 3 days by agar dilution method; type: functional, organism-based
[13] = tested on: Cercospora beticola; experiment: Antifungal activity against Benzimidalzole-resistant Cercospora beticola isolate 20-2 at 0.001 to 1000 ppm after 14 days by agar dilution method; type: functional, organism-based
[14] = tested on: Cercospora beticola; experiment: Antifungal activity against Benzimidalzole-resistant Cercospora beticola isolate Cb-19 infected in compound-treated sugar beet seedlings at 200 ppm after 12 days; type: functional
[15] = tested on: Cercospora beticola; experiment: Antifungal activity against Benzimidalzole-resistant Cercospora beticola isolate Cb-19 infected in sugar beet seedlings at 50 ppm 24 hr-post inoculation; type: functional
[16] = tested on: Botrytis cinerea; experiment: Ratio of EC50 for Benzimidalzole-sensitive Botryotinia fuckeliana isolate Bc-3 to EC50 for Benzimidalzole-resistant Botryotinia fuckeliana isolate Bc-31; type: functional
[17] = tested on: Cercospora beticola; experiment: Antifungal activity against Benzimidalzole-resistant Cercospora beticola isolate Cb-19 at 0.001 to 1000 ppm after 14 days by agar dilution method; type: functional, organism-based
[18] = tested on: Cercospora beticola; experiment: Ratio of EC50 for […] to EC50 for Benzimidalzole-resistant Cercospora beticola isole Cb-19; type: functional
[19] = tested on: Botrytis cinerea; experiment: Antifungal activity against Benzimidalzole-resistant Botryotinia fuckeliana isolate Bc-44 infected kidney bean leaves at 200 ppm applied as soil drench 3 days prior to inoculation; type: functional
[20] = tested on: Cercospora beticola; experiment: Antifungal activity against Benzimidalzole-resistant Cercospora beticola isolate 6-13 at 0.001 to 1000 ppm after 14 days by agar dilution method; type: functional, organism-based
[21] = tested on: Botrytis cinerea; experiment: Ratio of EC50 for Benzimidalzole-resistant Botryotinia fuckeliana isolate Bc-40 to EC50 for Benzimidalzole-resistant Botryotinia fuckeliana isolate Bc-44; type: functional
[22] = tested on: Cercospora beticola; experiment: Ratio of EC50 for Benzimidalzole-sensitive Cercospora beticola isolate 22-5 to EC50 for Benzimidalzole-resistant Cercospora beticola isolate 1-3; type: functional
[23] = tested on: Botrytis cinerea; experiment: Ratio of EC50 for Benzimidalzole-resistant Botryotinia fuckeliana isolate Bc-20 to EC50 for Benzimidalzole-resistant Botryotinia fuckeliana isolate Bc-44; type: functional
[24] = tested on: Botrytis cinerea; experiment: Antifungal activity against Benzimidalzole-sensitive Botryotinia fuckeliana isolate Bc-9 infected compound-treated kidney bean leaves at 200 ppm after 4 days; type: functional
[25] = tested on: Cercospora beticola; experiment: Antifungal activity against Benzimidalzole-sensitive Cercospora beticola isolate 18-1 infected in compound-treated sugar beet seedlings at 200 ppm after 12 days; type: functional
[26] = tested on: Cercospora beticola; experiment: Antifungal activity against Benzimidalzole-resistant Cercospora beticola isolate 18-2 infected in compound-treated sugar beet seedlings at 50 ppm after 12 days; type: functional
[27] = tested on: Cercospora beticola; experiment: Ratio of EC50 for Benzimidalzole-resistant Cercospora beticola isolate 20-2 to EC50 for Benzimidalzole-resistant Cercospora beticola isolate 1-3; type: functional
[28] = tested on: Cercospora beticola; experiment: Antifungal activity against Benzimidalzole-resistant Cercospora beticola isolate 1-3 at 0.001 to 1000 ppm after 14 days by agar dilution method; type: functional, organism-based
[29] = tested on: Cercospora beticola; experiment: Ratio of EC50 for Benzimidalzole-resistant Cercospora beticola isolate 6-13 to EC50 for Benzimidalzole-resistant Cercospora beticola isole Cb-19; type: functional
[30] = tested on: Cercospora beticola; experiment: Antifungal activity against Benzimidalzole-resistant Cercospora beticola isolate 49-4 at 0.001 to 1000 ppm after 14 days by agar dilution method; type: functional, organism-based
[31] = tested on: Cercospora beticola; experiment: Antifungal activity against Benzimidalzole-resistant Cercospora beticola isolate 18-2 infected in compound-treated sugar beet seedlings at 12.5 ppm after 12 days; type: functional
[32] = tested on: Cercospora beticola; experiment: Ratio of EC50 for Benzimidalzole-resistant Cercospora beticola isolate 6-13 to EC50 for Benzimidalzole-resistant Cercospora beticola isolate 49-4; type: functional
[33] = tested on: Botrytis cinerea; experiment: Ratio of EC50 for Benzimidalzole-sensitive Botryotinia fuckeliana isolate Bc-9 to EC50 for Benzimidalzole-resistant Botryotinia fuckeliana isolate Bc-31; type: functional
[34] = tested on: Botrytis cinerea; experiment: Antifungal activity against Benzimidalzole-resistant Botryotinia fuckeliana isolate Bc-44 infected kidney bean leaves at 50 ppm treated as foliar application followed by incubation for 7 days in green house condition; type: functional
[35] = tested on: Cercospora beticola; experiment: Antifungal activity against Benzimidalzole-resistant Cercospora beticola isolate Cb-19 infected in compound-treated sugar beet seedlings at 12.5 ppm after 12 days; type: functional
[36] = tested on: Cercospora beticola; experiment: Antifungal activity against Benzimidalzole-resistant Cercospora beticola isolate Cb-19 infected in sugar beet seedlings at 200 ppm 24 hr-post inoculation; type: functional
[37] = tested on: Cercospora beticola; experiment: Ratio of EC50 for Benzimidalzole-resistant Cercospora beticola isolate 6-13 to EC50 for Benzimidalzole-resistant Cercospora beticola isole 28-8; type: functional
[38] = tested on: Botrytis cinerea; experiment: Antifungal activity against Benzimidalzole-resistant Botryotinia fuckeliana isolate Bc-44 infected kidney bean leaves at 3.1 ppm treated as foliar application followed by incubation for 7 days in green house condition; type: functional
[39] = tested on: Cercospora beticola; experiment: Antifungal activity against Benzimidalzole-resistant Cercospora beticola isolate Cb-19 infected in sugar beet seedlings at 200 ppm treated as foliar application 7 days prior to inoculation; type: functional
[40] = tested on: Cercospora beticola; experiment: Ratio of EC50 for […] to EC50 for Benzimidalzole-resistant Cercospora beticola isole 28-8; type: functional
[41] = tested on: Cercospora beticola; experiment: Antifungal activity against Benzimidalzole-resistant Cercospora beticola isolate Cb-19 infected in sugar beet seedlings at 12.5 ppm 24 hr-post inoculation; type: functional
[42] = tested on: Cercospora beticola; experiment: Ratio of EC50 for Benzimidalzole-resistant Cercospora beticola isolate 18-11 to EC50 for Benzimidalzole-resistant Cercospora beticola isolate 1-3; type: functional
[43] = tested on: Botrytis cinerea; experiment: Ratio of EC50 for Benzimidalzole-resistant Botryotinia fuckeliana isolate Bc-40 to EC50 for Benzimidalzole-resistant Botryotinia fuckeliana isolate Bc-31; type: functional

C#CCOc1c(Cl)cc(N/C=N/OC)cc1Cl
Activity [1]: 100% | Activity [2]: 44% | Ratio EC50 [3]: > 1000 | Activity [4]: inactive | Activity [5]: Active | Ratio EC50 [6]: > 1000 | Activity [7]: 95% | Ratio EC50 [8]: > 1000 | Ratio EC50 [9]: > 1000 | Ratio EC50 [10]: > 1000 | Activity [11]: 100% | Activity [12]: Active | Activity [13]: inactive | Activity [14]: 100% | Activity [15]: 98% | Ratio EC50 [16]: > 1000 | Activity [17]: Active | Ratio EC50 [18]: > 1000 | Activity [19]: 7% | Activity [20]: inactive | Ratio EC50 [21]: > 1000 | Ratio EC50 [22]: > 1000 | Ratio EC50 [23]: > 1000 | Activity [24]: 8% | Activity [25]: 0% | Activity [26]: 100% | Ratio EC50 [27]: > 1000 | Activity [28]: Active | Ratio EC50 [29]: > 1000 | Activity [30]: Active | Activity [31]: 94% | Ratio EC50 [32]: > 1000 | Ratio EC50 [33]: > 1000 | Activity [34]: 100% | Activity [35]: 100% | Activity [36]: 100% | Ratio EC50 [37]: > 1000 | Activity [38]: 17% | Activity [39]: 100% | Ratio EC50 [40]: > 1000 | Activity [41]: 96% | Ratio EC50 [42]: > 1000 | Ratio EC50 [43]: > 1000
